Test results: US6114572A, “Substituted phenols and thiophenols useful as antioxidant agents” (priority 1997, dated 2000)
Where two headings read alike, the source gives them in different places.

What was measured:
[1] = system: Male Sprague-Dawley Rats; experiment: Serum clinical chemistries in male Sprague-Dawley rats; type: in vivo
Experimental: Measurement of Antioxidant Activity and Bioavailability of Compounds of Formula (1) By In Vivo Screening in Male Sprague-Dawley Rats
(§1) A typical experiment consists of 4-6 groups of rats (N=5 per group) with 1 group being a control which receives no MDL compound and the other groups being treated with 0.3% MDL compound. […] Mix the MDL compound with approximately 50 grams of food using a mortar and pestle. This is added to the remainder of the food and mixed for 3 hours on a rotary mixer. In the morning of day 5, anesthetize non-fasted rats with carbon dioxide, and collect blood by cardiac puncture. Sacrifice rats by cervical dislocation. Record body weights and liver weights in grams. Record food consumption as grams·day^-1 ·rat^-1. Deaths are recorded as mortality. Use aliquots of fresh serum for clinical chemistries, thiobarbituric acid reactive substances (TBARS) and conjugated diene measurements. Freeze aliquots of serum (~0.5 mL) and whole livers at -20° C. for compound and metabolite concentration determination at a later time.
Allow blood to clot at room temperature for 30 minutes. Obtain serum after centrifugation for 10 min at 4° C. at 3000 rpm in a Beckman J-6M/E centrifuge with a JS-4.2 rotor. […] Calculate ALP, ALT, and AST as units/L. Calculate cholesterol, triglycerides, and glucose as mg/dL.

[2] = system: oxidation of serum lipids; experiment: TBARS assay (oxidation of serum lipids) in male Sprague-Dawley rats; type: in vivo; details: feed or water, 96 h, rat serum, 4 days, N = 5, CuSO4-initiated, 3 hr, read-out: TBARS, percent of control
Experimental: as §1
In this assay the oxidation of serum lipids is initiated with CuSO4, resulting in the formation of aldehydes, such as malondialdehyde (MDA). Upon incubation with thiobarbituric acid, the absorbance of the aldehydes can be detected at 530-540 nm. […] Measure TBARS as follows: mix 100 μL of serum with 400 μL of a 5 mmol CuSO4 solution and incubate at 37° C. for 3 hr. Stop the reactions by addition of 1.0 mL of 20% trichloroacetic acid. […] Centrifuge samples briefly to pellet undissolved material, and transfer the supernatants to a 96-well microtiter plate. Measure absorbances at 540 nm using a Biotek model EL311 microplate reader. The nmoles of MDA produced are calculated from a standard curve of 0 to 10 nmoles of MDA prepared from malonaldehyde bis(dimethylacetal). Serum samples from treated rats are compared to serum samples from control rats that received no MDL compound.

[3] = system: oxidation of lipids; experiment: Conjugated diene lag phase determination in rat serum; type: in vivo, Sprague-Dawley rat; details: rat pooled serum, 0.3% in diet, 4 days; mean of 2 determinations; not normalized to control
From the text: A typical experiment consists of 4-6 groups of rats (N=5 per group) with 1 group being a control which receives no MDL compound and the other groups being treated with 0.3% MDL compound. Some of the compounds are either repeated at 0.3% or evaluated again at the lower dose of 0.1%. House Male Sprague-Dawley rats, 50-100 g, (Harlan Laboratories, Indianapolis, Ind.) in groups of 5, feeding ad libitum water and Purina Rodent chow (#5002) with or without MDL compound as a dietary admixture for 4 days. Make dietary admixtures (0.3%) by mixing 1.2 grams of an MDL compound with 400 grams of Purina rodent chow (#5002). Mix the MDL compound with approximately 50 grams of food using a mortar and pestle. This is added to the remainder of the food and mixed for 3 hours on a rotary mixer. In the morning of day 5, anesthetize non-fasted rats with carbon dioxide, and collect blood by cardiac puncture. Sacrifice rats by cervical dislocation. Record body weights and liver weights in grams. Record food consumption as grams·day^-1 ·rat^-1. Deaths are recorded as mortality. […]
Conjugated diene lag phase is another indicator of the oxidation of lipids. […] Measure the absorbances of all cuvettes and set the instrument baseline to zero using the lowest absorbing sample. […] Record the absorbance of each cuvette at 2 min intervals for a period of 840 min. […]

[4] = Animal parameters (food, body weight, liver weight, mortality) in male Sprague-Dawley rats; type: in vivo; details: for mortality at 96 h: po, read-out: mortality (deaths per group); for mortality at 96 h / body wt., percent of control: rat
From the text: (§2) A typical experiment consists of 4-6 groups of rats (N=5 per group) with 1 group being a control which receives no MDL compound and the other groups being treated with 0.3% MDL compound. Some of the compounds are either repeated at 0.3% or evaluated again at the lower dose of 0.1%. House Male Sprague-Dawley rats, 50-100 g, (Harlan Laboratories, Indianapolis, Ind.) in groups of 5, feeding ad libitum water and Purina Rodent chow (#5002) with or without MDL compound as a dietary admixture for 4 days. Make dietary admixtures (0.3%) by mixing 1.2 grams of an MDL compound with 400 grams of Purina rodent chow (#5002). Mix the MDL compound with approximately 50 grams of food using a mortar and pestle. This is added to the remainder of the food and mixed for 3 hours on a rotary mixer. In the morning of day 5, anesthetize non-fasted rats with carbon dioxide, and collect blood by cardiac puncture. Sacrifice rats by cervical dislocation. Record body weights and liver weights in grams. Record food consumption as grams·day^-1 ·rat^-1. Deaths are recorded as mortality. Use aliquots of fresh serum for clinical chemistries, thiobarbituric acid reactive substances (TBARS) and conjugated diene measurements. Freeze aliquots of serum (~0.5 mL) and whole livers at -20° C. for compound and metabolite concentration determination at a later time.

[5] = HPLC quantitation of compound and metabolite concentration in rat serum and liver; details: in vivo; for concentration at 96 h: po, 0.3% in diet, 4 days
From the text: as §2
Determine serum and liver concentrations of parent compound and the metabolites, bisphenol and diphenoquinone, by reverse phase HPLC using a Waters 990 Powerline system. Homegenize livers (1 gram samples) with 5.0 mL PBS, pH 7.4, using a Polytron tissue homogenizer at setting 5 for 20-30 seconds. Extract serum or liver homogenates as follows: add 100 μL of either serum or homogenate to 2.0 mL diethyl ether:ethanol (3:1) while vortexing the tube. Cap the sample tubes and centrifuge for 10 min at 5° C. at 3500 rpm in a Beckman GPKR centrifuge with a GH 3.7 rotor. Transfer the supernatants to clean tubes and dry under N2. Reconstitute samples with 200 μL of acetonitrile:hexane:0.1 M ammonium acetate (90:6.5:3.5, by vol.). Then, inject 100 μL onto a Waters Deltapak C18-300 Å column, and elute with an 83% acetonitrile:17% water mobile phase at a flow rate of 1.5 mL/min. Record absorbances at the wavelengths of 240, 254, and 420nm. Calculate compound concentrations from known quantities of authentic parent compounds after correction for recovery. […]. Calculate concentrations as μg/mL of serum and μg/g of liver.

[6] = system: Cholesterol-Fed Female New Zealand White Rabbits; experiment: Serum cholesterol, lipoprotein cholesterol and triglycerides in cholesterol-fed rabbits; type: in vivo, New Zealand White rabbit; details: rabbit serum, 0.4% in diet, 7 days, N = 5, fasted overnight
Experimental: Perform five independent experiments in the following manner. […] Solubilize the MDL compounds in 100% ethanol. Spray the chow with the MDL mixtures and allow to dry overnight in a chemical fume hood. Spray control chow with ethanol. […] On day 7, bleed (~2 mL) rabbits (fasted overnight) from a marginal ear vein. Euthanize rabbits by carbon dioxide overdose. Record the total body and liver weights in grams. Record food as grams·days^-1 ·rabbits^-1. Use aliquots of fresh serum for clinical chemistries, lipoprotein cholesterol determination, thiobarbituric acid reactive substances (TBARS) and compound and metabolite concentrations in serum. Freeze livers (~5 gram aliquots) at -20° C. for compound and metabolite concentration determination at a later time.
Allow blood to clot at room temperature for 30 minutes. Obtain serum after centrifugation for 10 min at 5° C. at 3000 rpm in a Beckman GPKR centrifuge with a GH rotor. […] Calculate cholesterol and triglycerides as mg/dL.
Separate lipoprotein fractions (very low density lipoprotein, VLDL, low density lipoprotein, LDL and high density lipoprotein, HDL) on a Sepharose 6HR column (1×30 cm, Pharmacia) attached to a Waters Powerline HPLC system. Inject serum (50 μL) onto the column and elute with phosphate buffered saline, pH 7.4, at a flow rate of 0.5 mL/min. […] Measure absorbance at 500 nm. The lipoprotein subfractions are quantitated as follows:

[7] = system: oxidation of serum lipids; experiment: TBARS assay (oxidation of serum lipids) in cholesterol-fed rabbits; type: in vivo, New Zealand White rabbit; details: rabbit serum, 0.4% in diet, 7 days, N = 5, CuSO4-initiated, 5 hr
From the text: Perform five independent experiments in the following manner. Each study has a control group and 1-5 groups treated with MDL compound (N=5 per group). Feed Female New Zealand White rabbits (Hazelton, ~2.0-2.3 kg) 0.2% cholesterol enriched rabbit chow (Purina #5322) with or without 0.4% MDL compound. Solubilize the MDL compounds in 100% ethanol. Spray the chow with the MDL mixtures and allow to dry overnight in a chemical fume hood. Spray control chow with ethanol. Feed rabbits 100 grams food per day for 7 days (0.6% MDL 103,491 were fed for 14 days); make available water ad libitum. On day 7, bleed (~2 mL) rabbits (fasted overnight) from a marginal ear vein. Euthanize rabbits by carbon dioxide overdose. Record the total body and liver weights in grams. Record food as grams·days^-1 ·rabbits^-1. Use aliquots of fresh serum for clinical chemistries, lipoprotein cholesterol determination, thiobarbituric acid reactive substances (TBARS) and compound and metabolite concentrations in serum. […]
TBARS are a qualitative indication of the oxidation of lipids in a sample. […] Upon incubation with thiobarbituric acid, the absorbance of the aldehydes can be detected at 530-540 nm. […] Measure absorbances at 540 nm using a Biotek model EL311 microplate reader. The nmoles of MDA produced are calculated from a standard curve of 0 to 10 nmoles of MDA prepared from malonaldehyde bis(dimethylacetal). […]

[8] = Animal parameters (food, body weight, liver weight) in cholesterol-fed rabbits; type: in vivo, New Zealand White rabbit; details: 0.4% in diet, 7 days, N = 5
From the text: Perform five independent experiments in the following manner. Each study has a control group and 1-5 groups treated with MDL compound (N=5 per group). Feed Female New Zealand White rabbits (Hazelton, ~2.0-2.3 kg) 0.2% cholesterol enriched rabbit chow (Purina #5322) with or without 0.4% MDL compound. Solubilize the MDL compounds in 100% ethanol. Spray the chow with the MDL mixtures and allow to dry overnight in a chemical fume hood. Spray control chow with ethanol. Feed rabbits 100 grams food per day for 7 days (0.6% MDL 103,491 were fed for 14 days); make available water ad libitum. On day 7, bleed (~2 mL) rabbits (fasted overnight) from a marginal ear vein. Euthanize rabbits by carbon dioxide overdose. Record the total body and liver weights in grams. Record food as grams·days^-1 ·rabbits^-1. Use aliquots of fresh serum for clinical chemistries, lipoprotein cholesterol determination, thiobarbituric acid reactive substances (TBARS) and compound and metabolite concentrations in serum. Freeze livers (~5 gram aliquots) at -20° C. for compound and metabolite concentration determination at a later time.

[9] = rat serum, 0.3% in diet, 4 days, N = 5
[10] = in vivo, 0.3% in diet, 4 days, N = 5
[11] = mean N = 5, read-out: Serum Parent (parent compound concentration)

SMILES | ALP (alkaline phosphatase), percent of control [1, 9] [%] | AST (aspartate aminotransferase), percent of control [1, 9] [%] | response vs control in vivo at 0.3 % in diet [2] [%] | mortality at 96 h [4, 10] [%] | body wt., percent of control ([4]; 0.3% in diet, 4 days, N = 5) [%] | Liver Bis (bisphenol concentration) ([5]; 5760 min) | Liver Quin (diphenoquinone concentration) ([5]; 5760 min) | Serum Bis (bisphenol concentration) ([5]; 5760 min) | Serum Quin (diphenoquinone concentration) ([5]; 5760 min) | concentration at 96 h [5, 11] [ng/mL] | also measured
CC(C)=CCCC(C)CCOc1ccc(O)c(C(C)(C)C)c1 (centres unmarked) [105,411] | 76 | 87 | 29 | 0 | 101 | 0 | 0 | 0 | 0 | 1100 | ALT (alanine aminotransferase), percent of control [1, 9]: 122%; GLUC (glucose), percent of control ([1]; rat, in vivo): 96%; CONJ. DIENE (conjugated diene lag phase) [3]: 400 min; food (grams eaten per day per rat), percent of control ([4]; in vivo): 95%; Liver Parent (parent compound concentration) ([5]; 5760 min): 0
CC(C)=CCC[C@H](C)CCOc1cc(C(C)(C)C)c(O)c(C(C)(C)C)c1 [103,294] | 124 | 88 | 18 | 0 | 101 | 0 | 0 | 0 | 0 | 21700 | LDL cholesterol, percent of control [6]: 82%; chol tot. (total cholesterol), percent of control [6]: 94%; TBARS, percent of control [7]: 35%; food (grams eaten per day per rabbit), percent of control [8]: 103%; body wt., percent of control ([8]; rabbit): 100%; lw/bw (liver weight/body weight), percent of control ([8]; rabbit): 105%; GLUC (glucose), percent of control [1, 9]: 103%; ALT (alanine aminotransferase), percent of control ([1]; rat, in vivo): 132%; food (grams eaten per day per rat), percent of control ([4]; 0.3% in diet, 4 days, N = 5): 108%; concentration at 96 h ([5]; mean N = 5, read-out: Liver Parent (parent compound concentration)): 64600 ng/g
